One test relates to A/H5N1/Duck_MN. The experiment in a line: microbe, parasite or virus in culture. Type of test: cell-based, influenza A.
A further test has as its system A/H5N1/Duck_PA. In words: microbe, parasite or virus in culture. Type of test: cell-based, influenza A.
The test system of the next test is A/H5N1/Gull_PA. In words: microbe, parasite or virus in culture. It counts as cell-based, influenza A.
In test [1] the test system is Influenza A/Solomon Islands/3/06. In words: Antiviral assay in MDCK cells, viral neuraminidase (MUNANA) readout, A/H1N1/Solomon Islands. Type of test: cell-based. As to conditions: read-out: A/H1N1/Solomon Islands Activity.
The next test relates to influenza A/WSN/33. The experiment in a line: Antiviral assay in MDCK cells, viral neuraminidase (MUNANA) readout, A/H1N1/WSN. It counts as cell-based. To be noted: read-out: A/H1N1/WSN Activity.
Test [2] has as its system influenza A/Brisbane/10/2007. In words: Antiviral assay in MDCK cells, viral neuraminidase (MUNANA) readout, A/H3N2/Brisbane. Type of test: cell-based. As to conditions: read-out: A/H3N2/Brisbane Activity.
Where [3] appears, read: Influenza A virus, H5N1, read-out: A/H5N1/Duck_MN.
[4] abbreviates: Influenza A virus, H5N1, read-out: A/H5N1/Duck_PA.
Where [5] appears, read: Influenza A virus, H5N1, read-out: A/H5N1/Gull_PA.
Setting [6] is: MDCK cells, MOI 0.001, 48 hrs post infection, viral NA activity.

Where two headings read alike, the source gives them in different places.

These results are taken from patent US8362004B2, “Piperazine analogs as broad-spectrum influenza antivirals” (priority 2010, dated 2013).

Turning to `CCOc1ccc(C(=O)Nc2cc(N3CCN(C(=O)c4c(-c5ccccc5OC)noc4C)CC3)c(Cl)cc2[N+](=O)[O-])cc1` [Example 15], the EC50 in the test with A/H5N1/Duck_MN (read-out: A/H5N1/Duck_MN) was less than 1000 nM; with A/H5N1/Duck_PA (read-out: A/H5N1/Duck_PA), less than 1000 nM; in the test with A/H5N1/Gull_PA (read-out: A/H5N1/Gull_PA) it was less than 100 nM.

Turning to `COc1ccccc1-c1noc(C)c1C(=O)N1CCN(c2cc(NC(=O)c3ccc(N(C)C)cc3)c([N+](=O)[O-])cc2Cl)CC1` [Example 14, N-(4-chloro-5-(4-(3-(2-methoxyphenyl)-5-methylisoxazole-4-carbonyl)piperazin-1-yl)-2-nitrophenyl)-4-(dimethylamino)benzamide], the EC50 is less than 100 nM in test [1] (Influenza A virus, H1N1, MDCK, 48 h); less than 100 nM in the test on A/H5N1/Duck_MN (setting [3]); less than 100 nM with influenza A/WSN/33 (Influenza A virus, MDCK, 48 h); less than 1000 nM in the test with A/H5N1/Duck_PA (setting [4]); less than 100 nM in test [2] (Influenza A virus, H3N2, MDCK, 48 h); less than 100 nM with A/H5N1/Gull_PA (setting [5]).

Take `COc1ccccc1-c1noc(C)c1C(=O)N1CCN(c2cc(NC(=O)c3nccs3)c([N+](=O)[O-])cc2Cl)CC1` [Example 5]: the EC50 was less than 100 nM in test [1] (setting [6]); less than 100 nM with A/H5N1/Duck_MN (read-out: A/H5N1/Duck_MN); less than 100 nM in the test with influenza A/WSN/33 (setting [6]); less than 100 nM in the test with A/H5N1/Duck_PA (read-out: A/H5N1/Duck_PA); less than 1000 nM in test [2] (setting [6]); less than 100 nM with A/H5N1/Gull_PA (read-out: A/H5N1/Gull_PA).

Regarding `COc1ccc(C(=O)Nc2cc(N3CCN(C(=O)c4c(-c5cccc6ccccc56)noc4C)CC3)c(Cl)cc2[N+](=O)[O-])cc1` [Example 77, N-(4-chloro-5-(4-(5-methyl-3-(naphthalen-1-yl)isoxazole-4-carbonyl)piperazin-1-yl)-2-nitrophenyl)-4-methoxybenzamide], the EC50 in the test on A/H5N1/Duck_MN (setting [3]) was less than 1000 nM; in the test with A/H5N1/Duck_PA (setting [4]), less than 1000 nM; with A/H5N1/Gull_PA (setting [5]) it was less than 100 nM.

Consider `COc1ccccc1-c1nnn(C)c1C(=O)N1CCN(c2cc(NC(=O)c3ccc(N4CCOC4=O)cc3)c([N+](=O)[O-])cc2Cl)CC1` [Example 93], for which the EC50 in test [1] (setting [6]) was less than 100 nM; in the test with A/H5N1/Duck_MN (read-out: A/H5N1/Duck_MN) it was less than 1000 nM; in the test on influenza A/WSN/33 (setting [6]), less than 100 nM; in the test with A/H5N1/Duck_PA (read-out: A/H5N1/Duck_PA), less than 1000 nM; in test [2] (setting [6]), less than 1000 nM; in the test on A/H5N1/Gull_PA (read-out: A/H5N1/Gull_PA), less than 100 nM.

On to `COc1ccccc1-c1noc(C)c1C(=O)N1CCN(c2cc(NC(=O)c3ccc(OC(F)F)cc3)c([N+](=O)[O-])cc2Cl)CC1` [Example 13], for which the EC50 is less than 1000 nM with A/H5N1/Duck_MN (read-out: A/H5N1/Duck_MN), less than 1000 nM in the test on A/H5N1/Duck_PA (read-out: A/H5N1/Duck_PA) and less than 100 nM with A/H5N1/Gull_PA (read-out: A/H5N1/Gull_PA).

In the case of `COc1ccccc1-c1noc(C)c1C(=O)N1CCN(c2cc(NC(=O)c3ccco3)c([N+](=O)[O-])cc2Cl)CC1` [Example 8], the EC50 was less than 1000 nM in the test with A/H5N1/Duck_MN (read-out: A/H5N1/Duck_MN), less than 100 nM in the test with A/H5N1/Duck_PA (read-out: A/H5N1/Duck_PA) and less than 100 nM with A/H5N1/Gull_PA (read-out: A/H5N1/Gull_PA).
